The values that follow are results of earlier work, collected in PMC4567415 (Nuclear medicine and biology, 2015).

The conditions of data set [1]: previously observed.
For data set [2] the following is noted: rats, 60 min.
Data set [3] concerns isolated rat cardiomyocytes.
For data set [4] the following is noted: previously described rhodamine B ester.
Setting [5] is: Sprague-Dawley rats, 60 min p.i.

Values joined by “and” are separate entries in the source; they are usually repeats but may differ in a detail not shown here. Equal values may be shown once. Read-outs that look alike come from different tables or passages of the source.

As to `Fc1ccc([P+](c2ccccc2)(c2ccccc2)c2ccccc2)cc1` [BFPET], the heart uptake (Sprague-Dawley rats, 30 min) was 1.51±0.04 % ID/g and the heart uptake under setting [5] was 1.57±0.18 % ID/g. The liver concentration (Sprague-Dawley rats, 30 min p.i.) was 0.18±0.05 % ID/g and the liver concentration under setting [5] is 0.17±0.03 % ID/g.

Turning to `CC(C)(C)n1ncc(OCc2ccc(COCCF)cc2)c(Cl)c1=O` [BMS-747158-02], under “30 min p.i.”, the heart-to-blood ratio is on record as 30.0, the heart-to-liver ratio is listed as 2.7 and the liver concentration is 1.27±0.10 % ID/g. Moreover, where the note is “120 min p.i.”, the heart-to-liver ratio is recorded as 5.4 and the liver concentration is listed as 0.63±0.16 % ID/g. In addition, under setting [5], the heart concentration is 3.3±0.3 % ID/g and the heart-to-liver ratio is recorded as 3.7. Moreover, where the note is “Wistar rats, 60 min p.i.”, the heart concentration is given as 2.06±0.83 % ID/g and the heart-to-liver ratio is given as 5.4.

Usually LogD stands for lipophilicity at a set pH, counting ionised and neutral species. For `CCN(CC)c1ccc2c(-c3ccccc3C(=O)OCCOCC[18F])c3ccc(N(CC)CC)cc3[o+]c2c1` [[^18F]2], the “stability in mouse serum” value in data set [1] is on record as “instability”. For the same compound, in data set [2], the “Biodistribution of radioactivity, Blood” value is reported as 0.25 ± 0.02 % ID/g; the “Biodistribution of radioactivity, Bone” value is 0.77 ± 0.04 % ID/g; the “Biodistribution of radioactivity, Gut” value is recorded as 1.69 ± 0.42 % ID/g; the “Biodistribution of radioactivity, Heart” value is 2.5 % ID/g and 2.51 ± 0.16 % ID/g. Besides, in data set [2], the “Biodistribution of radioactivity, Kidney” value is recorded as 9.28 ± 0.66 % ID/g; the “Biodistribution of radioactivity, Liver” value was 0.49 ± 0.04 % ID/g; the “Biodistribution of radioactivity, Lung” value was 2.06 ± 0.16 % ID/g; the “Biodistribution of radioactivity, Muscle” value was 0.54 ± 0.07 % ID/g. Moreover, in data set [2], the “Biodistribution of radioactivity, Skin” value is 0.36 ± 0.04 % ID/g; the “Biodistribution of radioactivity, Spleen” value was 3.53 ± 0.57 % ID/g; the Heart/blood tissue ratio is listed as 10.0; the Heart/bone tissue ratio is 3.3. Also, in data set [2], the Heart/liver tissue ratio is listed as 5.1 and the Heart/lung tissue ratio is 1.2. For the same compound, the “initial activity internalized into rat cardiomyocytes” value in data set [3] (1 min incubation) is 3.9±0.8%. Moreover, the “initial activity internalized into rat cardiomyocytes” value in data set [3] (60 min incubation) is listed as 43.1±7.7%. In data set [4], the LogD was 1.90 ± 0.01.

For `CC/N=c1\cc2oc3cc(NCC)c(C)cc3c(-c3ccccc3C(=O)OCC)c-2cc1C` [rhodamine 6G], the “substrate of Pgp” value in the data set with Pgp was “substrate of Pgp”.
